Columns and labels:
Type in all cases: in vivo
[1] = system: Corn Earworm (Helicoverpa zea, HELIZE, CEW); assay: Bioassay 4: corn earworm, artificial diet, 128-cell tray; conditions: AI alone
Summary of the method: (§1)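 Test solutions (0.0000004–0.04% w/v, i.e. 0.00005–5 μg/cm² on diet) were pipetted onto artificial lepidopteran diet and one 2nd-instar larva was placed per cell, 8 replicates per species, held at ~26° C. Live larvae were counted after 5 days; percent control used Abbott's correction against a solvent check.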

[2] = system: Brown Planthopper (Nilaparvata lugens, NILALU, BPH); assay: Bioassay 6: brown planthopper, sprayed rice seedlings; conditions: AI alone, AI Rate 0.049 g/ha, 6 days
Experimental: At these rates, F1 and the individual active ingredients were tested at a ratio of 1:1. […] F1 and triflumezopyrim were tested at a ratio of 16:1. Test solutions were prepared containing F1, the individual active ingredients, and mixtures of F1 with each of the active ingredients. Test solutions were prepared by weighing 5 mg of each test chemistry (either alone or in combination depending on the treatment) into a 25 mL glass vial. Next, 1 mL of acetone was added to each vial to dissolve the test chemistries, followed by 19 mL of water with 0.125% Tween 20 adjuvant. This test solution represented the 50 g/ha treatment, which was then serially diluted four-fold to create the three lower rates of 12.5, 3.125, and 0.78 g/ha. Triflumezopyrim was prepared in a similar manner, but two additional serial dilutions were conducted to create solutions representing 6 rates of 12.5, 3.125, 0.78, 0.19, 0.049, and 0.012 g/ha. The higher two doses were discarded, and the four lower doses were used for testing. Each rate was replicated four times, and solvent blanks were used as control treatments.
Five (5) rice seedlings (10-12 days old) planted in 3-inch pots were used as test plants. Rice seedlings were grown in soil and the soil was covered with a 2% agar solution. The test solutions were applied to test plants using a Devries laboratory research sprayer, set to spray at 200 liters per hectare (L/ha) using a TeeJet hollow cone nozzle. Following application, the rice seedlings were dried for 1 hour, after which a single clear plastic tube (2 inches in diameter×12 inches in height) was placed over the seedlings in each pot. The tube was pushed down into the agar to create a sealed test chamber. The agar prevented insects from hiding in the soil and made adult collection and grading easier. Ten to fifteen (10-15) 5th instar BPH nymphs were transferred to each test chamber using a vacuum aspirator. Immediately following BPH infestation, the test chamber was covered with a piece of grade 90 cheesecloth and secured with a rubber band, sealing the test chamber. The test chambers were held at 25° C. for 6 days, after which the total number of live insects was counted in each test chamber. Percent control was measured using Abbott's correction formula (W. S. Abbott, J. Econ. Entomol. 18 (1925), pp. 265-267) as follows:
where X=No. of live insects on solvent check and Y=No. of live insects in treated chambers. In Table B6 the “Expected % Control” was calculated using the method described in Colby S. R., Weeds, 1967, 15, 20-22. Bioassay 7: Corn Earworm (Helicoverpa zea, HELIZE, “CEW”), Fall Armyworm (Spodoptera frugiperda, LAPHFR, “FAW”), Beet Armyworm (Spodoptera exigua, LAPHEG, “BAW”),and Soybean Looper (Chrysodeixis includens, PSEPIN, “SBL”).

[3] = system: Western Flower Thrips (Frankliniella occidentalis, FRANOC, WFT); assay: Bioassay 3: western flower thrips, cotton leaf disc dip; conditions: 3 days
Experimental: Stock solutions of F1 and various active ingredients were prepared initially at a concentration of 0.1 mg/mL using acetone as a diluent. Stock solutions were prepared with F1 as well as for each of the active ingredients individually. Test solutions were prepared from the stock solutions. Test solutions were prepared containing F1, the individual active ingredients, and mixtures of F1 with each of the active ingredients. The test solutions for F1 and the individual active ingredients were prepared by adding 500 μL of stock solution to a 25 mL glass vial, then adding 500 μL of acetone, followed by the addition of 9 mL water with 0.025% Tween® 20 to create a 0.0005% (w/v) solution. The test solutions containing mixtures of F1, and the individual active ingredients were prepared by adding 500 μL of the active ingredient stock solution to a 25 mL glass vial, followed by 500 μL of the F1 stock solution, then by the addition of 9 mL water with 0.025% Tween® 20 to create a test solution containing 0.0005% (w/v) F1 and 0.0005% (w/v) of the active ingredient. Each test solution was serially diluted to create desired doses of test solutions (0.0005% (w/v), 0.000125% (w/v), 0.00003125% (w/v), 0.0000078% (w/v), and 0.00000195% (w/v)).
The test solutions were tested against WFT using the following procedure: Leaf discs (2.7 cm in diameter) were cut from the true leaves of cotton plants. Leaf discs were dipped into the test solutions and shaken to ensure complete coverage of the leaf disc and then placed in Millipore® PetriSlides containing a filter paper disc. Treated leaf discs were air dried for approximately 1 hour. Each leaf disc was infested with 5 WFT (9-10-day old nymphs) by placement on each leaf disc, and the PetriSlides were capped to prevent escape. Each treatment was replicated three times and the test treatments were held at approximately 26° C. and ambient relative humidity (RH) prior to grading. Reference discs (solvent check) were treated with the diluent only. Evaluation was conducted by counting the number of live WFT under magnification 3 days after treatment. Percent control was measured using Abbott's correction formula (W. S. Abbott, J. Econ. Entomol. 18 (1925), pp. 265-267) as follows:
where X=No. of live nymphs on solvent check leaf discs and Y=No. of live nymphs on treated leaf discs. In Table B3 the “Expected % Control” was calculated using the method described in Colby S. R., Weeds, 1967, 15, 20-22. Bioassay 4: Corn Earworm (Helicoverpa zea, HELIZE, “CEW”), Fall Armyworm (Spodoptera frugiperda, LAPHFR, “FAW”), and Soybean Looper (Chrysodeixis includens, PSEPIN, “SBL”).

[4] = system: Fall Armyworm (Spodoptera frugiperda, LAPHFR, FAW); assay: Bioassay 4: fall armyworm, artificial diet, 128-cell tray; conditions: AI alone
Summary of the method: as §1

[5] = system: Western Corn Rootworm (Diabrotica virgifera virgifera, DIABVI, WCR); assay: Bioassay 8: western corn rootworm, soil drench, corn root protection; conditions: AI alone, DIABVI, soil drench, 13 days
Experimental: Corn seeds were planted in steam pasteurized soil filled greenhouse pots. Western corn rootworm Diabrotica virgifera virgifera eggs supplied from the Corteva Agriscience in Johnston, IA US, were suspended in a 0.08% agar solution added into the soil. Stock solutions of F1 and active ingredients were prepared at a concentration of either 250 or 500 ugai/10 mL for F1 and active ingredients at the ratios of (F1:AI) 1:0.004; 1:0.01; 1:0.02; 1:0.04; 1:0.08; 1:0.1; 1:0.15; 1:0.2; 1:0.4; 1:2; or 1:4, using a 1:1 solution of acetone:water as a diluent. A soil application of solutions were applied as a 10 mL drench over the soil. Plants were grown in the greenhouse for 13 days at 25 C after which the roots were removed from the soil, washed, and measured to determine the length of the median nodal roots. The measured lengths were compared to the infested and un-infested untreated checks to determine the mean percent control offered to protect the corn roots.

[6] = system: Beet Armyworm (Spodoptera exigua, LAPHEG, BAW); assay: Bioassay 7: beet armyworm, artificial diet, 96 well plate; conditions: AI alone at 0.4 wt %
Experimental: (§2) The test solutions were tested against CEW, FAW, BAW, and SBL using the following procedure: an artificial lepidopteran diet (Multispecies Lepidopteran Diet, Southland Products) was distributed in 96 well plate. Twenty μL of test solution was pipetted onto a cell in the bioassay plate. […] Each treatment was replicated 5 times for each species. Approximately five first instar CEW, FAW, BAW, or SBL larva were placed on top of the diet in each cell and was contained with a clear perforated adhesive lid. Test trays were held at approximately 25° C. and ambient relative humidity prior to grading. After five days, the number of cells where all the larvae were dead were recorded as 100% and averaged across all replicates; then the percent control was measured using Abbott's correction formula (W. S. Abbott, J. Econ. Entomol. 18 (1925), pp. 265-267) as follows:
(§3) where X=No. of live larvae on solvent check and Y=No. of live larvae on treated diet. In Table 7 the “Expected % Control” was calculated using the method described in Colby S. R., Weeds, 1967, 15, 20-22. Bioassay 8: Western Corn Rootworm (Diabrotica virgifera virgifera, DIABVI, “WCR”)

[7] = system: Corn Earworm (Helicoverpa zea, HELIZE, CEW); assay: Bioassay 7: corn earworm, artificial diet, 96 well plate; conditions: AI alone at 0.4 wt %
Experimental: as §2, §3

[8] = system: Soybean Looper (Chrysodeixis includens, PSEPIN, SBL); assay: Bioassay 4: soybean looper, artificial diet, 128-cell tray; conditions: AI alone, 0.000004 wt %
Summary of the method: as §1

[9] = system: Soybean Looper (Chrysodeixis includens, PSEPIN, SBL); assay: Bioassay 7: soybean looper, artificial diet, 96 well plate; conditions: CL; AI alone at 0.4 wt %
Experimental: as §2, §3

[10] = system: Fall Armyworm (Spodoptera frugiperda, LAPHFR, FAW); assay: Bioassay 7: fall armyworm, artificial diet, 96 well plate
Experimental: as §2, §3

## Abamectin
[1]; 0.000004 wt %
  Average % Control AI: 0.0%
[1]; 0.00004 wt %
  Average % Control AI: 0.0%
[2]
  Average % Control AI: 40.7%
[3]; AI alone at 1:1 rate to F1 3.125 (10^-6 Wt %)
  Average % Control AI: 31.0%
[4]; 0.00004 wt %
  Average % Control AI: 0.0%

## Thiabendazole
[5]; UgActive AI 50
  Average % Control AI: 16.8%
[6]
  Average % Control AI: 0.0%
[7]
  Average % Control AI: 0.0%

## CC1(C)CCC(=Cc2ccc(Cl)cc2)C1(O)Cn1cncn1 (centres unmarked) [Titriconazole]
[5]; UgActive AI 100
  Average % Control AI: 0.0%
[6]
  Average % Control AI: 0.0%
[7]
  Average % Control AI: 0.0%

## OC(Cc1ccccc1Cl)(Cn1nc[nH]c1=S)C1(Cl)CC1 (centres unmarked) [Prothioconazole]
[5]; UgActive AI 20
  Average % Control AI: 0.0%
[7]
  Average % Control AI: 0.0%

## Spinetoram
[1]; 0.000004 wt %
  Average % Control AI: 0.0%
[1]; 0.00004 wt %
  Average % Control AI: 25.0%
[8]
  Average % Control AI: 25.0%
[2]
  Average % Control AI: 2.5%
[4]; 0.000004 wt %
  Average % Control AI: 0.0%

## Inpyrfluxam
[5]; UgActive AI 1
  Average % Control AI: 0.0%
[9]
  Average % Control AI: 0.0%
[10]; AI alone at 0.4 wt %
  Average % Control AI: 0.0%
[7]
  Average % Control AI: 12.5%

## CCN(C(=O)CCS(C)(=O)=O)c1sc(-c2cccnc2)nc1Cl [AI-1, N-(4-chloro-2-(pyridin-3-yl)thiazol-5-yl)-N-ethyl-3-(methylsulfonyl)propanamide]
[1]; 0.000004 wt %
  Average % Control AI: 0.0%
[1]; 0.00004 wt %
  Average % Control AI: 0.0%
[8]
  Average % Control AI: 12.5%
[2]
  Average % Control AI: 0.0%
[3]; AI alone at 1:1 rate to F1 0.78 (10^-6 Wt %)
  Average % Control AI: 9.5%
[4]; 0.000004 wt %
  Average % Control AI: 0.0%

## Cn1cc(C(=O)Nc2ccccc2C2CC2C2CC2)c(C(F)F)n1 (centres unmarked) [Sedaxane]
[5]; UgActive AI 10
  Average % Control AI: 0.0%
[9]
  Average % Control AI: 0.0%
[6]
  Average % Control AI: 0.0%
[10]; AI alone at 0.4 wt %
  Average % Control AI: 0.0%
[7]
  Average % Control AI: 0.0%

## CC1(C)[C@H](C(=O)O[C@H](C#N)c2cccc(Oc3ccccc3)c2)[C@@H]1C=C(Br)Br [Deltamethrin]
[5]; UgActive AI 1
  Average % Control AI: 17.0%
[10]; AI alone at 0.004 wt %
  Average % Control AI: 0.0%

— patent US20260182575A1, “MOLECULES HAVING PESTICIDAL UTILITY AND INTERMEDIATES AND PROCESSES RELATED THERETO” (CORTEVA AGRISCIENCE LLC, priority 2022, published 2026)
